Measurements taken from patent publication US9587225B2, “Low-molecular-compound for improving production, maintenance and proliferation of pluripotent stem cells, composition comprising the same, and culture method” (KOREA RESEARCH INSTITUTE OF BIOSCIENCE AND BIOTECHNOLOGY, priority 2012, dated 2017).

System: Mouse embryonic fibroblasts (OG2-MEF; hemizygous for the Oct4-GFP transgene)
Assay: Reprogramming of mouse embryonic fibroblasts, Oct4-GFP colony count
Format: cell-based
Details: OG2-MEF transfected with OSKM, after 15 days, compared to control group
Protocol: FIG. 1 is a process of screening mouse cell reprogramming factors using analog library screening of novel trans-3-indoleacrylic acid-based compounds. In order to screen low-molecular-weight compounds that promote the production of reprogrammed stem cells, mouse embryonic stem cells (OG2-MEF; hemizygous for the Oct4-GFP transgene) were transduced with reprogramming viruses (Oct4, Sox2, Klf4, and c-Myc). After 5 days, the cells were seeded on gelatin-coated plates and then cultured in mouse embryonic stem cell culture media containing each of low-molecular-weight compounds until colonies having a morphology similar to that of mouse embryonic stem cells were formed. After 15 days, the number of colonies expressing endogenous Oct4 GFP fluorescence was measured, and compounds that increased the efficiency of reprogramming compared to that of a control group were selected. […] Oct4 (O), Sox2 (S), Klf4 (K), and cMyc (M). FIG. 1B is a graph showing the increase in efficiency of reprogramming by RSC-133 and ID-558 among screened compounds. The values shown on the graph are mean values. The data are expressed as mean±SD (n=3).
The OSKM reprogramming factor virus was produced according to the method of Example 3. […] At 15 days after the transfection, the number of either colonies showing AP activity or colonies expressing endogenous Oct4 GFP fluorescence was measured to determine the efficiency of reprogramming.
To discover low-molecular-weight compounds that are involved in the reprogramming process, analog library screening of novel trans-3-indoleacrylic acid-based compounds was performed in mouse cells. Mouse embryonic fibroblasts (OG2-MEF: hemizygous for the Oct4-GFP transgene) were transfected with reprogramming viruses of Oct4, Sox2, Klf4 and c-Myc (OSKM), and after 5 days, the cells were seeded on gelatin-coated 12-well plates and incubated with mouse embryonic stem cell culture medium containing each of low-molecular-weight compounds until colonies having a morphology similar to that mouse stem cells were formed so that endogenous Oct4 GFP fluorescence was expressed (FIG. 1A). […]

SMILES: CN(C)C(=O)c1ccc(O)c(NC(=O)C=Cc2c[nH]c3ccccc23)c1 [ID-558, 3-[3-(1H-indol-3-yl)-acrylamido]-4-hydroxy-N,N-dimethylbenzamide]
- efficiency of reprogramming (number of colonies expressing endogenous Oct4 GFP fluorescence): showed the effect of increasing the efficiency of reprogramming
